Test results taken from patent US6962931B2, “Self-emulsifying formulations of cholesteryl ester transfer protein inhibitors” (Pfizer Inc., priority 2001, dated 2005).

Legend:
[1] = Microsolubility estimate by repeated addition of vehicle; format: physicochemical; conditions: thermodynamic from solid, read-out: Microsolubility
Protocol: For CETP inhibitors where quantities were limited, an estimate of solubility was obtained by addition of vehicle to a known quantity of the compound and mixing in an ultrasonicator bath for 90 minutes, followed by overnight equilibration at ambient temperature. Addition of vehicle was repeated until a solution was achieved.
For CETP inhibitors where quantities were limited or the samples were amorphous solids, an estimate of solubility was obtained by addition of vehicle to a known quantity of the compound and mixing in an ultrasonicator bath for 90 minutes, followed by overnight equilibration at ambient temperature. Addition of vehicle was repeated until a solution was achieved. From the total volume of vehicle added to solubilize the CETP inhibitor compound, the solubility value, or so-called microsolubility, was calculated by the equation: Weight of sample (mgA)/vehicle volume (mL)=Microsolubility (mgA/mL)

[2] = Equilibrium solubility in excipients, vehicles and emulsion preconcentrates; format: physicochemical; conditions: equilibrium
Protocol: The solubility of CETP inhibitors in excipients and in formulations was determined by adding an excess of compound to the medium in question. The mixture was agitated by rotation over a period of days at ambient temperature until the concentration in solution had reached an equilibrium as judged by similar measurements for consecutive time points. Concentrations were measured by filtration of aliquots with a PTFE syringe filter and assay by HPLC as described in Example 11.
The solubility of crystalline CETP inhibitors in representative vehicles was determined by adding an excess of compound to the vehicle in question. The mixture was agitated by rotation over a period of days at ambient temperature until the concentration in solution had reached equilibrium as judged by similar measurements for consecutive time points. Concentrations were measured by filtration of aliquots with a PTFE syringe filter and assayed by HPLC.
The concentrations of CETP inhibitor in each vehicle were assayed at intervals by dilution of aliquots into acetonitrile and gradient HPLC analysis on a Water Symmetry C-8 column (3.9×150 mm, 5 micron) at 30° C. at a flow rate of 1 mL/min. […] The detection method was UV absorbance at 210 nm.

[3] = PK in rat, oils or preformed emulsions by oral gavage; parameters: species or system Sprague Dawley rats; conditions: Sprague-Dawley, in vivo
Text: Emulsions prepared from olive oil/surfactant provided the best results.

PK in monkeys = format: in vivo, cynomologous monkeys
Text: Use of an emulsion prepared from crystalline (ethanolate) drug allowed comparible exposures to be achieved to those for more soluble amorphous drug in Miglyol® alone. Excellent dose proportionality was also obtained.

In the case of CCOC(=O)N1c2ccc(C(F)(F)F)cc2[C@@H](N(Cc2cc(C(F)(F)F)cc(C(F)(F)F)c2)C(=O)OC)C[C@H]1CC [Compound A, [2R,4S] 4-[(3,5-bis-trifluoromethyl-benzyl)-methoxycarbonyl-amino]-2-ethyl-6-trifluoromethyl-3,4-dihydro-2H-quinoline-1-carboxylic acid ethyl ester], the Solubility ([1]; Capmul MCM, oil or lipid) is reported as greater than 300 mg/mL, the Solubility ([1]; Cotton oil, oil or lipid) is reported as less than 75 mg/mL and the Solubility ([1]; Crodamol GTCC, oil or lipid) is reported as less than 75 mg/mL. It also gave a Solubility ([1]; Glycerin, organic solvent or mixture) of less than 75 mg/mL, a Solubility ([1]; Incromega TG2671, oil or lipid) of less than 75 mg/mL and a Solubility ([1]; Linoleic acid, oil or lipid) of less than 60 mg/mL. For the same molecule, the Solubility ([1]; Miglyol 810, oil or lipid) was less than 100 mg/mL, the Solubility ([1]; Miglyol 812, oil or lipid) was greater than 300 mg/mL and the Solubility ([1]; Olive oil, oil or lipid) was greater than 300 mg/mL. The Solubility ([1]; Safflower oil, oil or lipid) was greater than 300 mg/mL, the Solubility ([1]; mineral oil, oil or lipid) was less than 75 mg/mL and the Solubility ([1]; oil or lipid) was less than 75 mg/mL. The Solubility ([1]; propylene glycol, organic solvent or mixture) was less than 75 mg/mL, the Solubility ([2]; ambient temperature, vehicle Water) was less than 0.00004 mgA/ml and the Solubility ([2]; Miglyol 812/EtOH/Cremophor EL (76/4/20)) was 89 mgA/ml. It also gave a Solubility ([2]; Miglyol 812/Ethyl lactate/Cremophor EL 30/50/20) of 256 mgA/ml, a Solubility ([2]; Miglyol 812/Ethyl lactate/Cremophor EL 40/40/20) of 221 mgA/ml and a Solubility ([2]; Miglyol 812/Ethyl lactate/Cremophor EL 50/30/20) of 196 mgA/ml. The Solubility ([2]; Miglyol 812/Ethyl lactate/Cremophor EL 60/20/20) was 143 mgA/ml, the Solubility ([2]; Miglyol 812/Ethyl lactate/Cremophor EL 65/15/20) was 120 mgA/ml and the Solubility ([2]; Miglyol 812/Ethyl lactate/Cremophor EL 70/10/20) was 99 mgA/ml. The Solubility ([2]; Miglyol 812/Ethyl lactate/Cremophor EL 72/8/20) was 94 mgA/ml, the Solubility ([2]; Miglyol 812/Ethyl lactate/Labrasol (72/8/20)) was 98 mgA/ml and the Solubility ([2]; Miglyol 812/Ethyl lactate/Tagat TO (72/8/20)) was 87 mgA/ml. For the same molecule, the Solubility ([2]; Miglyol 812/Peppermint Oil/Cremophor EL (72/8/20)) was 72 mgA/ml, the Solubility ([2]; Miglyol 812/Propylene carbonate/Cremophor EL 30/50/20) was 228 mgA/ml and the Solubility ([2]; Miglyol 812/Propylene carbonate/Cremophor EL 40/40/20) was 209 mgA/ml. It also gave a Solubility ([2]; Miglyol 812/Propylene carbonate/Cremophor EL 55/25/20) of 158 mgA/ml, a Solubility ([2]; Miglyol 812/Propylene carbonate/Cremophor EL 72/8/20) of 108 mgA/ml and a Solubility ([2]; Miglyol 812/Propylene carbonate/Labrasol (72/8/20)) of 116 mgA/ml. The Solubility ([2]; Miglyol 812/Propylene carbonate/Tagat TO (72/8/20)) was 111 mgA/ml, the Solubility ([2]; Miglyol 812/Triacetin/Cremophor EL 30/50/20) was 198 mgA/ml and the Solubility ([2]; Miglyol 812/Triacetin/Cremophor EL 40/40/20) was 183 mgA/ml. The Solubility ([2]; Miglyol 812/Triacetin/Cremophor EL 50/30/20) was 158 mgA/ml, the Solubility ([2]; Miglyol 812/Triacetin/Cremophor EL 60/20/20) was 133 mgA/ml and the Solubility ([2]; Miglyol 812/Triacetin/Cremophor EL 65/15/20) was 111 mgA/ml. For the same molecule, the Solubility ([2]; Miglyol 812/Triacetin/Cremophor EL 72/8/20) was 94 mgA/ml, the Solubility ([2]; vehicle Capmul MCM) was 41 mgA/ml and the Solubility ([2]; vehicle Cremophor EL) was 20 mgA/ml. It also gave a Solubility ([2]; vehicle Dimethylisosorbide) of 439 mgA/ml, a Solubility ([2]; vehicle Ethyl lactate) of 400 mgA/ml and a Solubility ([2]; vehicle Glycofurol) of 99 mgA/ml. For the same molecule, the Solubility ([2]; vehicle Labrafil M 1944) was 26 mgA/ml, the Solubility ([2]; vehicle Labrafil M 2125) was 27 mgA/ml and the Solubility ([2]; vehicle Labrasol) was 41 mgA/ml. The Solubility ([2]; vehicle Lauroglycol FCC) was 70 mgA/ml, the Solubility ([2]; vehicle Maisine 35-1) was 9 mgA/ml and the Solubility ([2]; vehicle Miglyol 812) was 65 mgA/ml. For the same molecule, the Solubility ([2]; vehicle Miglyol 812/Capmul MCM (80/20)) was 74 mgA/ml, the Solubility ([2]; vehicle Miglyol 812/Capmul MCM/Polysorbate 80 (20/60/20)) was 63 mgA/ml and the Solubility ([2]; vehicle Miglyol 812/Capmul MCM/Polysorbate 80 (40/40/20)) was 58 mgA/ml. The Solubility ([2]; vehicle Miglyol 812/Cremophor EL 80/20) was 68 mgA/ml, the Solubility ([2]; vehicle Miglyol 812/Labrafil M 1944 (80/20)) was 59 mgA/ml and the Solubility ([2]; vehicle Miglyol 812/Labrafil M 2125 (80/20)) was 57 mgA/ml. It also gave a Solubility ([2]; vehicle Miglyol 812/Labrasol (80/20)) of 69 mgA/ml, a Solubility ([2]; vehicle Miglyol 812/Peppermint oil (80/20)) of 93 mgA/ml and a Solubility ([2]; vehicle Miglyol 812/Peppermint oil (90/10)) of 79 mgA/ml. For the same molecule, the Solubility ([2]; vehicle Miglyol 812/Tagat TO (80/20)) was 58 mgA/ml, the Solubility ([2]; vehicle Miglyol 812/propylene carbonate/Cremophor EL (60/20/20)) was 146 mgA/ml and the Solubility ([2]; vehicle Miglyol 812/triacetin (90/10), not completely miscible) was 106 mgA/ml. The Solubility ([2]; vehicle N-methyl-2-pyrrolidone) was 813 mgA/ml, the Solubility ([2]; vehicle Oleic acid) was 8.5 mgA/ml and the Solubility ([2]; vehicle Olive oil) was 17 mgA/ml. It also gave a Solubility ([2]; vehicle Olive oil/Capmul MCM (80/20)) of 23 mgA/ml, a Solubility ([2]; vehicle Olive oil/Peppermint oil (90/10)) of 25 mgA/ml and a Solubility ([2]; vehicle Peceol) of 10 mgA/ml. For the same molecule, the Solubility ([2]; vehicle Plurol Oleique CC 497) was 17 mgA/ml, the Solubility ([2]; vehicle Pluronic L-44) was 36 mgA/ml and the Solubility ([2]; vehicle Polysorbate 80 (Tween 80)) was 23 mgA/ml. The Solubility ([2]; vehicle Propylene carbonate) was 227 mgA/ml, the Solubility ([2]; vehicle Tagat TO (Polyoxyethylene glycerol trioleate)) was 32 mgA/ml and the Solubility ([2]; vehicle Transcutol P) was 174 mgA/ml. For the same molecule, the Solubility ([2]; vehicle Triacetin) was 235 mgA/ml, the Solubility ([2]; vehicle Triethyl citrate) was 240 mgA/ml and the Solubility ([2]; vehicle peppermint oil) was 266 mgA/ml. The Cmax ([3]; 100 mg/kg, crystalline ethanolate, Miglyol/Cremophor/0.5% HPMCAS 40/10/50, 100 mg/kg) was 1600 ng/mL, the AUC(0-t) ([3]; 100 mg/kg, crystalline ethanolate, Miglyol/Cremophor/0.5% HPMCAS 40/10/50, 100 mg/kg, Tlast = 24 hr) was 15000 ng·h/mL and the AUC(0-t) ([3]; 100 mg/kg, crystalline ethanolate, Miglyol/Cremophor/water 40/10/50, 100 mg/kg, Tlast = 24 hr) was 23000 ng·h/mL. The Cmax ([3]; 100 mg/kg, crystalline ethanolate, Miglyol/Cremophor/water 40/10/50, 100 mg/kg, conc. in oil 100 mg/mL) was 1900 ng/mL, the Cmax ([3]; 100 mg/kg, crystalline ethanolate, Olive oil/Cremophor 80/20, 100 mg/kg) was 3600 ng/mL and the AUC(0-t) ([3]; 100 mg/kg, crystalline ethanolate, Olive oil/Cremophor 80/20, 100 mg/kg, Tlast = 24 hr) was 45000 ng·h/mL. It also gave an AUC(0-t) ([3]; 100 mg/kg, crystalline ethanolate, Olive oil/Cremophor/water 40/10/50, 100 mg/kg, Tlast = 9 hr) of 33000 ng·h/mL, a Cmax ([3]; 100 mg/kg, crystalline ethanolate, Olive oil/Cremophor/water 40/10/50, 100 mg/kg, conc. in oil 20 mg/mL) of 6200 ng/mL and a Cmax ([3]; 300 mg/kg, amorphous anhydrous, Olive oil) of 7300 ng/mL. For the same molecule, the AUC(0-t) ([3]; 300 mg/kg, amorphous anhydrous, Olive oil, Tlast = 24 hr) was 50000 ng·h/mL, the Cmax ([3]; 375 mg/kg, crystalline ethanolate, Olive oil/caprylic acid/Cremophor/water 10/30/10/50, 375 mg/kg) was 4100 ng/mL and the AUC(0-t) ([3]; 375 mg/kg, crystalline ethanolate, Olive oil/caprylic acid/Cremophor/water 10/30/10/50, 375 mg/kg, Tlast = 9 hr) was 21000 ng·h/mL. It also gave a Cmax ([3]; 500 mg/kg, crystalline ethanolate, Miglyol) of 2100 ng/mL, an AUC(0-t) ([3]; 500 mg/kg, crystalline ethanolate, Miglyol, Tlast = 24 hr) of 27000 ng·h/mL and an AUC(0-t) ([3]; 500 mg/kg, crystalline ethanolate, Miglyol/Cremophor/water 40/10/50, 500 mg/kg, Tlast = 9 hr) of 18000 ng·h/mL. It also gave a Cmax ([3]; 500 mg/kg, crystalline ethanolate, Miglyol/Cremophor/water 40/10/50, 500 mg/kg, conc. in oil 100 mg/mL) of 4600 ng/mL, a Cmax ([3]; 625 mg/kg, crystalline ethanolate, Olive oil/caprylic acid/triacetin/Cremophor/water 10/15/15/10/50, 625 mg/kg) of 4800 ng/mL and an AUC(0-t) ([3]; 625 mg/kg, crystalline ethanolate, Olive oil/caprylic acid/triacetin/Cremophor/water 10/15/15/10/50, 625 mg/kg, Tlast = 9 hr) of 26000 ng·h/mL. The Cmax (PK in monkeys; crystalline ethanolate, Olive oil/Cremophor/water 40/10/50, 20 mg/kg, 20 mg/kg) was 160 ng/mL, the Cmax (PK in monkeys; monkey, in vivo, oral, 20 mg/kg, crystalline ethanolate, Olive oil/Cremophor/water 40/10/50, 20 mg/kg, read-out: Cmax) was 100 ng/mL and the AUC (PK in monkeys; monkey, in vivo, oral, 50 mg/kg, crystalline ethanolate, Miglyol/Cremophor/water 40/10/50, 50 mg/kg (BID)) was 13000 to 15000 ng·h/mL. It also gave a Cmax (PK in monkeys; monkey, in vivo, oral, 50 mg/kg, crystalline ethanolate, Miglyol/Cremophor/water 40/10/50, 50 mg/kg (BID), read-out: Cmax) of 800 to 1100 ng/mL, an AUC (PK in monkeys; monkey, in vivo, oral, 100 mg/kg, amorphous anhydrous, Miglyol) of roughly 29000 ng·h/mL and a Cmax (PK in monkeys; monkey, in vivo, oral, 100 mg/kg, amorphous anhydrous, Miglyol, 100 mg/kg, read-out: Cmax) of roughly 1600 ng/mL. For the same molecule, the Cmax (PK in monkeys; monkey, in vivo, oral, 100 mg/kg, crystalline ethanolate, Miglyol, 100 mg/kg, read-out: Cmax) was roughly 170 ng/mL, the AUC (PK in monkeys; monkey, in vivo, oral, 100 mg/kg, crystalline ethanolate, Miglyol/Cremophor/water 40/10/50, 100 mg/kg (BID)) was 24000 to 29000 ng·h/mL and the Cmax (PK in monkeys; monkey, in vivo, oral, 100 mg/kg, crystalline ethanolate, Miglyol/Cremophor/water 40/10/50, 100 mg/kg (BID), read-out: Cmax) was 1600 to 2300 ng/mL. For the same molecule, the Cmax (PK in monkeys; monkey, in vivo, oral, 100 mg/kg, crystalline ethanolate, Miglyol/Cremophor/water 40/10/50, 100 mg/kg, read-out: Cmax) was 400 to 1800 ng/mL.
